According to patent publication US11603543B2, “Fusogenic lipid nanoparticles for target cell-specific production of a therapeutic protein” (Oisin Biotechnologies, Inc., priority 2018, dated 2023):

B1: p14: fusogenic p14 FAST fusion protein from reptilian reovirus, SEQ ID NO: 16 (protein, listed as Homo sapiens)
chain: MGSGPSNFVNHAPGEAIVTGLEKGADKVAGTISHTIWEVIAGLVALLTFLAFGFWLFKYLQKRRERRRQLTEFQKRYLRNSYRLSEIQRPISQHEYEDPYEPPSRRKPPPPPYSTYVNIDNVSAI

What was measured:
[1] = test system: Human prostate cancer PC-3 cells; experiment: Western blot of iCasp9 and Casp9 protein levels in PC-3 cells; type: cell-based; details: PC-3 cells treated with Fusogenix lipid nanoparticles carrying pVax-p53-iCasp9-luc plasmid
Description: FIG. 36 is a Western blot of iCasp 9 and Casp 9 protein levels obtained with p53-expressing cells (pVax-p53) and control cells (pcDNA3-GFP). Human prostate cancer PC-3 cells were treated with Fusogenix lipid nanoparticles carrying the pVax-p53-iCasp9-luc (luciferin) plasmid (in the presence and absence of the homodimerizer AP201870) and assessed for iCasp9 expression.
Human prostate cancer PC-3 cells were treated with Fusogenix lipid nanoparticles carrying the pVax-p53-iCasp9-luc (luciferin) plasmid (in the presence and absence of the homodimerizer AP201870) and assessed for iCasp9 expression and subjected to Western blot analysis of iCasp 9 and Casp 9 protein levels obtained with p53-expressing cells (pVax-p53) and control cells (pcDNA3-GFP). FIG. 36.

[2] = test system: Human prostate cancer (LNCaP, DU145, PC-3) or normal epithelial (RWPE) cells; experiment: Western blot and luminescence assays of iCasp9 expression in prostate cancer and normal epithelial cells; type: cell-based; details: DU145, PC-3, RWPE cells treated with Fusogenix lipid nanoparticles carrying pVax-p53-iCasp9-luc plasmid
[3] = test system: Human prostate cancer PC-3 cells; experiment: Luminescence assay of iCasp9 expression in PC-3 cells; type: cell-based; details: PC-3 cells treated with Fusogenix lipid nanoparticles carrying pVax-p53-iCasp9-luc plasmid
Description: FIG. 42 is a bar graph of data from a luminescence assay of iCasp 9 and Casp 9 protein levels obtained with the p53-expressing cells presented in FIG. 36 (pVax-p53) and control cells (pcDNA3-GFP). Human prostate cancer PC-3 cells were treated with Fusogenix lipid nanoparticles carrying the pVax-p53-iCasp9-luc (luciferin) plasmid (in the presence and absence of the homodimerizer AP20187) and assessed for iCasp9 expression.
Human prostate cancer PC-3 cells were treated with Fusogenix lipid nanoparticles carrying the pVax-p53-iCasp9-luc (luciferin) plasmid (in the presence and absence of the homodimerizer AP20187) and assessed for iCasp9 expression.

[4] = humans; cited from earlier work
[5] = Anti-p14 and anti-LNP antibody response in immune competent mice; type: in vivo; details: with adjuvant: 3 injections of 50 μg p14 with Freund's adjuvant at 10 day intervals; sera after 30 days
Description: Mice were injected three (3) times at 10 day intervals with purified p14 mixed with Freund's adjuvant. A first dose contained CFA (complete Freund's adjuvant) while second and third doses contained IFA (incomplete Freund's adjuvant). Each injection was with 50 μg of p14. Mice were sacrificed after 30 days and sera was analyzed for anti-p14 antibodies. p14 lipid nanoparticles were also tested in two (2) mice via intravenous injection of 400 μg of p53-iCasp9 Fusogenix lipid nanoparticles containing 240 μg of p14. Mice were sacrificed after 30 days of injection and serum was analyzed for anti-p14 antibodies. A positive control included purified antibodies spiked in serum at a high dose of 250 ng/ml and a low dose of 50 ng/ml.

Molecule | expression of iCasp9 and luciferase after addition of CID [1] | expression of iCasp9 and luciferase after addition of CID [2] | expression of iCasp9 and luciferase after addition of CID [3] | intravenous safety [4] | anti-p14 antibody response [5]
CC[C@H](C(=O)N1CCCC[C@H]1C(=O)O[C@H](CCc1ccc(OC)c(OC)c1)c1cccc(OCC(=O)NCCNC(=O)COc2cccc([C@@H](CCc3ccc(OC)c(OC)c3)OC(=O)[C@@H]3CCCCN3C(=O)[C@@H](CC)c3cc(OC)c(OC)c(OC)c3)c2)c1)c1cc(OC)c(OC)c(OC)c1 [AP1903] | abolishes the expression of iCasp9 and luciferase | abolishes the expression of iCasp9 and luciferase | abolishes the expression of iCasp9 and luciferase | confirmed | 
CC[C@H](C(=O)N1CCCC[C@H]1C(=O)O[C@H](CCc1ccc(OC)c(OC)c1)c1cccc(OCC(=O)NCC(CNC(=O)COc2cccc([C@@H](CCc3ccc(OC)c(OC)c3)OC(=O)[C@@H]3CCCCN3C(=O)[C@@H](CC)c3cc(OC)c(OC)c(OC)c3)c2)CN(C)C)c1)c1cc(OC)c(OC)c(OC)c1 [AP20187] | abolishes the expression of iCasp9 and luciferase | abolishes the expression of iCasp9 and luciferase | abolishes the expression of iCasp9 and luciferase |  | 
B1 |  |  |  |  | virtually no antibody response
